# Results from patent US8802597B2, “Herbicidal pyrimidines” (E I du Pont de Nemours and Company, priority 2003, dated 2014).
# Where two headings read alike, the source gives them in different places.
# Experiments:
# Assay in all cases: Test C pre/postemergence
# Assay type in all cases: in vivo
# [1] = tested on: giant foxtail (Setaria faberii); details: Setaria faberi, pre-emergence, Preemergence, read-out: Plant response rating, Foxtail, Giant
# Summary of the method: (§1)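 Greenhouse pot test: seeds treated preemergence, or plants at 2–18 cm (1- to 4-leaf stage) treated postemergence, with compound in non-phytotoxic solvent plus surfactant. Visual rating versus untreated controls after 12–14 days, scale 0 (no effect) to 100 (complete control); dash means not tested.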
# [2] = tested on: common (oilseed) sunflower (Helianthus annuus); details: Helianthus annuus, pre-emergence, Preemergence, read-out: Plant response rating, Sunflower
# Summary of the method: as §1
# [3] = tested on: cocklebur (Xanthium strumarium); details: Xanthium strumarium; for pest or weed control at 16 g/ha: 16 g ai/ha; for pest or weed control at 31 g/ha: 31 g ai/ha; for pest or weed control at 62 g/ha: 62 g ai/ha; for pest or weed control at 125 g/ha: 125 g ai/ha
# Summary of the method: as §1
# [4] = tested on: johnsongrass (Sorghum halepense); details: Sorghum halepense; for pest or weed control at 16 g/ha: 16 g ai/ha; for pest or weed control at 31 g/ha: 31 g ai/ha; for pest or weed control at 62 g/ha: 62 g ai/ha; for pest or weed control at 125 g/ha: 125 g ai/ha
# Summary of the method: as §1
# [5] = tested on: morningglory (Ipomoea coccinea); details: Ipomoea; for pest or weed control at 16 g/ha: 16 g ai/ha; for pest or weed control at 31 g/ha: 31 g ai/ha; for pest or weed control at 62 g/ha: 62 g ai/ha; for pest or weed control at 125 g/ha: 125 g ai/ha
# Summary of the method: as §1
# [6] = tested on: kochia (Kochia scoparia); details: Bassia scoparia; for pest or weed control at 16 g/ha: 16 g ai/ha; for pest or weed control at 31 g/ha: 31 g ai/ha; for pest or weed control at 62 g/ha: 62 g ai/ha; for pest or weed control at 125 g/ha: 125 g ai/ha
# Summary of the method: as §1
# [7] = tested on: Surinam grass (Brachiaria decumbens); details: Urochloa decumbens; for pest or weed control at 125 g/ha: 125 g ai/ha; for pest or weed control at 16 g/ha: 16 g ai/ha; for pest or weed control at 31 g/ha: 31 g ai/ha; for pest or weed control at 62 g/ha: 62 g ai/ha
# Summary of the method: as §1
# [8] = 62 g ai/ha, scale 0 to 100, 0 no effect, 100 complete control
# [9] = post-emergence, Postemergence, read-out: Plant response rating (scale of 0 to 100), Cocklebur
# [10] = post-emergence, Postemergence, scale 0 to 100 (0 no effect, 100 complete control), read-out: Cocklebur plant response rating
# [11] = pre-emergence, Preemergence, scale 0 to 100, 0 no effect, 100 complete control, read-out: Plant response rating, Cocklebur
# [12] = post-emergence, Postemergence, read-out: Plant response rating (scale of 0 to 100), Johnsongrass
# [13] = post-emergence, Postemergence, scale 0 to 100 (0 no effect, 100 complete control), read-out: Johnsongrass plant response rating
# [14] = pre-emergence, Preemergence, scale 0 to 100, 0 no effect, 100 complete control, read-out: Plant response rating, Johnsongrass
# [15] = post-emergence, Postemergence, read-out: Plant response rating (scale of 0 to 100), Morningglory
# [16] = post-emergence, Postemergence, scale 0 to 100 (0 no effect, 100 complete control), read-out: Morningglory plant response rating
# [17] = pre-emergence, Preemergence, scale 0 to 100, 0 no effect, 100 complete control, read-out: Plant response rating, Morningglory
# [18] = post-emergence, Postemergence, read-out: Plant response rating (scale of 0 to 100), Kochia
# [19] = post-emergence, Postemergence, scale 0 to 100 (0 no effect, 100 complete control), read-out: Kochia plant response rating
# [20] = pre-emergence, Preemergence, scale 0 to 100, 0 no effect, 100 complete control, read-out: Plant response rating, Kochia
# [21] = post-emergence, Postemergence, scale 0 to 100 (0 no effect, 100 complete control), read-out: Surinam Grass plant response rating
# [22] = post-emergence, Postemergence, read-out: Plant response rating (scale of 0 to 100), Surinam Grass
# [23] = pre-emergence, Preemergence, scale 0 to 100, 0 no effect, 100 complete control, read-out: Plant response rating, Surinam Grass
compound,measurement,setting,value
COC(=O)c1nc(C2CC2)nc(N)c1F [Compound 25],pest or weed control at 62 g/ha,[1]; [8],0%
same,pest or weed control at 125 g/ha,"[1]; 125 g ai/ha, scale 0 to 100",0%
same,pest or weed control at 16 g/ha,"[2]; 16 g ai/ha, scale 0 to 100, 0 no effect, 100 complete control",5%
same,pest or weed control at 31 g/ha,"[2]; 31 g ai/ha, scale 0 to 100, 0 no effect, 100 complete control",60%
same,pest or weed control at 62 g/ha,[2]; [8],75%
same,pest or weed control at 125 g/ha,"[2]; 125 g ai/ha, scale 0 to 100",90%
same,pest or weed control at 16 g/ha,[3]; [9],70%
same,pest or weed control at 31 g/ha,[3]; [9],85%
same,pest or weed control at 62 g/ha,[3]; [10],90%
same,pest or weed control at 125 g/ha,[3]; [10],90%
same,pest or weed control at 16 g/ha,[3]; [11],0%
same,pest or weed control at 31 g/ha,[3]; [11],20%
same,pest or weed control at 62 g/ha,[3]; [11],60%
same,pest or weed control at 125 g/ha,"[3]; pre-emergence, Preemergence, scale 0 to 100, read-out: Plant response rating, Cocklebur",85%
same,pest or weed control at 16 g/ha,[4]; [12],0%
same,pest or weed control at 31 g/ha,[4]; [12],10%
same,pest or weed control at 62 g/ha,[4]; [13],10%
same,pest or weed control at 125 g/ha,[4]; [13],20%
same,pest or weed control at 16 g/ha,[4]; [14],0%
same,pest or weed control at 31 g/ha,[4]; [14],0%
same,pest or weed control at 62 g/ha,[4]; [14],0%
same,pest or weed control at 125 g/ha,"[4]; pre-emergence, Preemergence, scale 0 to 100, read-out: Plant response rating, Johnsongrass",0%
same,pest or weed control at 16 g/ha,[5]; [15],90%
same,pest or weed control at 31 g/ha,[5]; [15],90%
same,pest or weed control at 62 g/ha,[5]; [16],90%
same,pest or weed control at 125 g/ha,[5]; [16],90%
same,pest or weed control at 16 g/ha,[5]; [17],0%
same,pest or weed control at 31 g/ha,[5]; [17],0%
same,pest or weed control at 62 g/ha,[5]; [17],50%
same,pest or weed control at 125 g/ha,"[5]; pre-emergence, Preemergence, scale 0 to 100, read-out: Plant response rating, Morningglory",90%
same,pest or weed control at 16 g/ha,[6]; [18],10%
same,pest or weed control at 31 g/ha,[6]; [18],80%
same,pest or weed control at 62 g/ha,[6]; [19],85%
same,pest or weed control at 125 g/ha,[6]; [19],85%
same,pest or weed control at 16 g/ha,[6]; [20],0%
same,pest or weed control at 31 g/ha,[6]; [20],0%
same,pest or weed control at 62 g/ha,[6]; [20],5%
same,pest or weed control at 125 g/ha,"[6]; pre-emergence, Preemergence, scale 0 to 100, read-out: Plant response rating, Kochia",70%
same,pest or weed control at 125 g/ha,[7]; [21],5%
same,pest or weed control at 16 g/ha,[7]; [22],0%
same,pest or weed control at 31 g/ha,[7]; [22],0%
same,pest or weed control at 62 g/ha,[7]; [21],0%
same,pest or weed control at 16 g/ha,[7]; [23],0%
same,pest or weed control at 31 g/ha,[7]; [23],0%
same,pest or weed control at 62 g/ha,[7]; [23],0%
same,pest or weed control at 125 g/ha,"[7]; pre-emergence, Preemergence, scale 0 to 100, read-out: Plant response rating, Surinam Grass",40%
